Measured values as given in ChEMBL document CHEMBL1201862, “PubChem BioAssay data set” (2004).
Activity calls are given as the source filed them.

How the values were obtained:
[1] = tested on: BJ; experiment: cytotoxicity toward BJ-TERT fibroblasts, dose response, cell-based, RAS-independent, luminescence (AID 1933); assay type: functional; conditions: Homo sapiens
[2] = target: T1, Heat shock factor protein 1 (Mus musculus, UniProt P38532); experiment: inhibition of MG132-induced HSE-luciferase signal, confirmation, cell-based, NIH3T3, luminescence, dose retest (AID 2382); assay type: functional;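 also: NIH3T3 fibroblasts with HSF1-driven luciferase reporter stressed by proteasome inhibitor MG132; luminescence from HSF1-driven luciferase expression after 8 hours of MG132 stress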
T1 sequence (P38532 whole entry): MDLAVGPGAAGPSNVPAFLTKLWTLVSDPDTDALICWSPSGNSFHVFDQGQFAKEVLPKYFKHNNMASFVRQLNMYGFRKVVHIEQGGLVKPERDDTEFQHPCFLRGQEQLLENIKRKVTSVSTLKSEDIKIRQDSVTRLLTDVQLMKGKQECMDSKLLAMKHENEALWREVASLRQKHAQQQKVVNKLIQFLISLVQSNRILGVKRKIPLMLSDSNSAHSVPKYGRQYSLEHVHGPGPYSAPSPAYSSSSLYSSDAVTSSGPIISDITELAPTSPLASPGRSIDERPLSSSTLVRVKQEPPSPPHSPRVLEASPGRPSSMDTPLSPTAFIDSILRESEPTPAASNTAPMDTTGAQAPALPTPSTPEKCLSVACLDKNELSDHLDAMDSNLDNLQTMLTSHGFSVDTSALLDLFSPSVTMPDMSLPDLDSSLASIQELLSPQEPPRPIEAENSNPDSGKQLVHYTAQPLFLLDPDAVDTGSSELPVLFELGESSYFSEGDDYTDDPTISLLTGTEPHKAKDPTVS

[3] = tested on: BJ; experiment: cells; assay type: functional, cell-based; conditions: Homo sapiens
[4] = target: T2, Sphingosine 1-phosphate receptor 4 (Homo sapiens, UniProt O95977); experiment: Fluorescence dose response cell-based high throughput screening assay for antagonists of the Sphingosine 1-Phosphate Receptor 4 (S1P4). [Related pubchem assays: 1524 (Confirmation in triplicates.), 1510 (Primary screen.)]; assay type: functional
T2 sequence (O95977 whole entry): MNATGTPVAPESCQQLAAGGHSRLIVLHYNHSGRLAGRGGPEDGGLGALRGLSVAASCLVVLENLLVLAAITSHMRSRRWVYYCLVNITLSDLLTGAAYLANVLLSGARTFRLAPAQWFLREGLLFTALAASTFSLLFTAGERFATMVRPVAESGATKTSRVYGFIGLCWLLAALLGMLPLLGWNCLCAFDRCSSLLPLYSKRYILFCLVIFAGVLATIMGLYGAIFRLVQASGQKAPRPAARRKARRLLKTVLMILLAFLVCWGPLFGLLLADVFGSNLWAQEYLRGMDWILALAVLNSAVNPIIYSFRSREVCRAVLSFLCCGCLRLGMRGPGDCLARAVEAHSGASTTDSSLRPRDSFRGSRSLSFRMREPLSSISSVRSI

[5] = tested on: BJ; experiment: cytotoxicity toward BJ-TERT-LT-ST fibroblasts, dose response, cell-based, RAS-independent, luminescence (AID 1935); assay type: functional; conditions: Homo sapiens;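 also: BJ fibroblasts immortalized with TERT plus LT and ST oncogenes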
[6] = cytotoxicity toward DRD oncogenic fibroblasts, dose response, cell-based, non-viral oncogenic, luminescence (AID 1934); assay type: functional; conditions: Homo sapiens
[7] = target: Sphingosine 1-phosphate receptor 1 (Homo sapiens, UniProt P21453); assay type: functional;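 also: Tango beta-arrestin reporter U2OS cells stimulated with S1P near its EC80; inhibitor potency meaning antagonism of receptor activation by the natural agonist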
[8] = target: Integrin alpha-4 (Homo sapiens, UniProt P13612); experiment: VLA-4 integrin allosteric ligands, SAR follow-up, cell-based, LIBS antibody binding, flow cytometry (AID 488791); assay type: functional
[9] = tested on: CHO; experiment: cytotoxicity in TLR9-MyD88 CHO cells, dose response, cytotoxicity control for TLR9-MyD88 binding inhibitor project, cell-based, luminescence (AID 588339); assay type: functional, hamster; conditions: Cricetulus griseus;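 also: CHO cells stably coexpressing TLR9 and MyD88 fusions from primary screen; compound exposure lasted 48 hours before viability readout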
[10] = target: Beta Lactamase (Pseudomonas aeruginosa, UniProt Q932Y6); experiment: beta-lactamase reporter inhibitor potency, dose response, artefact control for TLR9-MyD88 binding inhibitor project, BLA reporter cells, FRET fluorescence (AID 588341); assay type: cell-based;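 also: cell based assay in CHO-K1 cells stably expressing beta-lactamase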
Beta Lactamase, sequence (Q932Y6 whole entry): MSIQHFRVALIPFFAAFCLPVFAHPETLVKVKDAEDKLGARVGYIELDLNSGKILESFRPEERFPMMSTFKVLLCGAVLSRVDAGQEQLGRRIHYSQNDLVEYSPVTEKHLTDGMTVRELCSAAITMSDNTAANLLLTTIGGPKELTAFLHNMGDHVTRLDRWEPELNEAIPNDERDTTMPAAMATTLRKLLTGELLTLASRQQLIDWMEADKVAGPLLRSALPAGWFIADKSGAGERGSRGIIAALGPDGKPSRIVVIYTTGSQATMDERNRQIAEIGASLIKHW

[11] = inhibitors of intracellular T. cruzi replication, confirmation, NIH3T3 host cells, beta-gal luminescence (AID 2044); assay type: functional, cell-based;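 also: intracellular parasites grown in NIH/3T3 mouse fibroblasts as host cells; luminescent beta-galactosidase reporter signal from transgenic T. cruzi replicating inside host cells; inhibitors lower the luminescence signal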
[12] = target: T3, Calpain-2 catalytic subunit (Sus scrofa, UniProt P43367); experiment: pig calpain II inhibitor potency, dose response, biochemical, fluorogenic peptide substrate (AID 1420); assay type: functional
T3 sequence (P43367 whole entry): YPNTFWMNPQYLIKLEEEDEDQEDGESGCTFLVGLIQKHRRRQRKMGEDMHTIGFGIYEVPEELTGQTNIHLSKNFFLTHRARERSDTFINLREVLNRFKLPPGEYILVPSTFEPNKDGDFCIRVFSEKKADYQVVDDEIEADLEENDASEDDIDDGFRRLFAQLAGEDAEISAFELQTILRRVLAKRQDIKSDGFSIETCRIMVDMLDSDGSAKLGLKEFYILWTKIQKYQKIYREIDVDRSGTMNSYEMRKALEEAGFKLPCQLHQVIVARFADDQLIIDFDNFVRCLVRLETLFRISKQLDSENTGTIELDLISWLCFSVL

[13] = cytotoxicity toward NIH3T3 fibroblasts, dose response, counter-screen, cell-based, ATP luminescence, mouse fibroblasts (AID 2010); assay type: functional;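 also: cells exposed to compound for about 90 hours before reading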
[14] = target: NACHT, LRR and PYD domains-containing protein 3 (Homo sapiens, UniProt Q96P20); experiment: NALP3 inhibitors in yeast, dose response, luminescent (AID 488799); assay type: functional
NACHT, LRR and PYD domains-containing protein 3, sequence (Q96P20 whole entry, the tested form may be a part): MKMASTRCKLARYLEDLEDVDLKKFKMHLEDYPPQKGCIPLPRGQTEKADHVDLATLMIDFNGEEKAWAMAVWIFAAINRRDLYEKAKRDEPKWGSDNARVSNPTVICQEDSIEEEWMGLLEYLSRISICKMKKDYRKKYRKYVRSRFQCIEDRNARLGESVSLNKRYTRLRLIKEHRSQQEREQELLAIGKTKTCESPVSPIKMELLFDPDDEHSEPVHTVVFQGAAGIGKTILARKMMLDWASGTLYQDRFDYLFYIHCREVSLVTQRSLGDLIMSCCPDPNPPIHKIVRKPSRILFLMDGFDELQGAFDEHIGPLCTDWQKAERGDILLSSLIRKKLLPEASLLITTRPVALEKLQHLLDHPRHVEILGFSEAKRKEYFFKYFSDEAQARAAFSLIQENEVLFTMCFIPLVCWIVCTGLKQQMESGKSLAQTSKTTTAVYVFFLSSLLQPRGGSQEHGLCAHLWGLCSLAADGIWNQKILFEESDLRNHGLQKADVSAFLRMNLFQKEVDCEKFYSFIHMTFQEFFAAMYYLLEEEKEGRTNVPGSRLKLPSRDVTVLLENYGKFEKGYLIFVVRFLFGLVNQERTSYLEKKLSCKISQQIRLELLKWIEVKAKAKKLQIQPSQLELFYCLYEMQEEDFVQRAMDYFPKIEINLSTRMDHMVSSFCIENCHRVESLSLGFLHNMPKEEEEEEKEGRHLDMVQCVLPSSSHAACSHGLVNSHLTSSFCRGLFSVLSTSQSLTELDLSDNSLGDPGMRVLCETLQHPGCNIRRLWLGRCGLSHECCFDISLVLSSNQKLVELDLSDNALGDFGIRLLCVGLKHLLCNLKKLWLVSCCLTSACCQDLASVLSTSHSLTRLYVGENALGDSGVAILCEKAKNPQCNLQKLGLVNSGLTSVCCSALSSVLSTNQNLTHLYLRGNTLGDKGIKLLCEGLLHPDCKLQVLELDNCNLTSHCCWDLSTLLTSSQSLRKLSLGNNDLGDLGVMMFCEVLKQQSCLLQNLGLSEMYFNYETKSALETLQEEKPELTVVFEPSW

[15] = target: Neurotensin receptor type 1 (Homo sapiens, UniProt P30989); assay type: functional;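 also: Image-based confirmatory dose-response assay measuring agonist activity at NTR1; NTR1-expressing U2OS osteosarcoma cells imaged for beta-arrestin GFP spot formation; agonist potency where compounds increase beta-arrestin recruitment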
[16] = cytotoxicity in HEK-293T cells, dose response, cytotoxicity control for TCR NF-kB inhibitor project, luminescence, T-cell screen hits (AID 489026); assay type: functional, cell-based;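 also: cells exposed to compound about 14 hours before the viability readout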
[17] = cells
[18] = tested on: Vero; experiment: cytotoxicity of synthesized analogs in Vero 76, SAR follow-up, cytotoxicity control for West Nile virus antiviral project, Vero 76 cells (AID 2414); assay type: functional; conditions: Chlorocebus sabaeus
[19] = tested on: Vero; experiment: cytotoxicity of synthesized analogs in Vero cells, SAR follow-up, cytotoxicity control for West Nile virus antiviral project, cell-based, set II (AID 2402); assay type: functional; conditions: Chlorocebus sabaeus
[20] = tested on: Vero; experiment: Vero E6 cell cytotoxicity, SAR follow-up, cytotoxicity control for West Nile virus antiviral project, synthesized analogs (AID 2244); assay type: functional; conditions: Chlorocebus sabaeus
[21] = tested on: Vero; experiment: West Nile virus CPE inhibition, SAR follow-up, cell-based, synthesized analogs (AID 2238); assay type: functional; conditions: Chlorocebus sabaeus
[22] = target: T4, Tyrosine-protein phosphatase non-receptor type 7 (Homo sapiens, UniProt P35236); experiment: Dose Response confirmation of compounds that inhibit HePTP. [Related pubchem assays (depositor defined):AID1059, AID1661, AID2085]; assay type: functional
T4 sequence (P35236 whole entry): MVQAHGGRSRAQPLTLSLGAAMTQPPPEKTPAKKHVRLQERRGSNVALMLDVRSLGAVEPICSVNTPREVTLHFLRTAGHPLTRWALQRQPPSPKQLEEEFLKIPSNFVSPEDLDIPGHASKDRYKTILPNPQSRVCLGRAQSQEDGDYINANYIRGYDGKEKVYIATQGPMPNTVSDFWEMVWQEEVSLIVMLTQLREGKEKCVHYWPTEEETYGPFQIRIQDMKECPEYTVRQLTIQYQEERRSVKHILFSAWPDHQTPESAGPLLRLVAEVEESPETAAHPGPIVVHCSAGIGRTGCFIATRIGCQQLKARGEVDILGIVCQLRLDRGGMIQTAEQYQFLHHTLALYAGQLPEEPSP

[23] = target: Dual specificity protein phosphatase 3 (Homo sapiens, UniProt P51452); experiment: Dose Response Confirmation of compounds that inhibit VHR1 in Fluorescent Assay. [Related pubchem assays (depositor defined):AID1661, AID1878]; assay type: functional
[24] = target: Low molecular weight phosphotyrosine protein phosphatase (Homo sapiens, UniProt P24666); assay type: functional; conditions: read-out: IC50_Mean;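 also: Dose-response confirmation assay measuring inhibition of LMPTP enzyme activity by fluorescence intensity read-out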
Low molecular weight phosphotyrosine protein phosphatase, sequence (P24666 whole entry): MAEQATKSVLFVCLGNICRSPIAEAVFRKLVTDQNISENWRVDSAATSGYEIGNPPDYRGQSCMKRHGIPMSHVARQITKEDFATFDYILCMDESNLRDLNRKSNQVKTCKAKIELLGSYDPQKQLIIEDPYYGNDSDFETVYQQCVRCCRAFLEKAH

[25] = target: T5, Coagulation factor XII (Homo sapiens, UniProt P00748); experiment: FXIIa inhibitor potency, concentration-response, biochemical (AID 716); assay type: functional
T5 sequence (P00748 whole entry): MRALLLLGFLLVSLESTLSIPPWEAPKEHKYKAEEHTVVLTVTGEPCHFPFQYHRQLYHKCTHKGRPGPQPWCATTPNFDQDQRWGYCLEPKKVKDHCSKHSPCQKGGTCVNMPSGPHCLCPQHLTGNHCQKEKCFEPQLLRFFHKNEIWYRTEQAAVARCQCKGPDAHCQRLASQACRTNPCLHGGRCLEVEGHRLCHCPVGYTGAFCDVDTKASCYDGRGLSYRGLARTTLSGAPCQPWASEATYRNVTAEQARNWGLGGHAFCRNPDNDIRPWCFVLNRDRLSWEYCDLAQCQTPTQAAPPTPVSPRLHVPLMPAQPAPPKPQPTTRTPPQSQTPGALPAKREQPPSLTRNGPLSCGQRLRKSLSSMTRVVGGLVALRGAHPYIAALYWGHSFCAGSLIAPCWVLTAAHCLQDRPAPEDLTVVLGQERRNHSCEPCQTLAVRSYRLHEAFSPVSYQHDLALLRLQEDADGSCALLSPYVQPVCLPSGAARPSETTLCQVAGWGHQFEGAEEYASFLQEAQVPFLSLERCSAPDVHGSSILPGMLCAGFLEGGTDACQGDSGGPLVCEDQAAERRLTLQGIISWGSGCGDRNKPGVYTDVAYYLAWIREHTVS

[26] = target: Voltage-dependent T-type calcium channel subunit alpha-1H (Homo sapiens, UniProt O95180); experiment: Cav3.2 T-type channel inhibitors, cell-based, synthetic library set 1, calcium flux (AID 493022); assay type: functional
Voltage-dependent T-type calcium channel subunit alpha-1H, sequence (O95180 whole entry): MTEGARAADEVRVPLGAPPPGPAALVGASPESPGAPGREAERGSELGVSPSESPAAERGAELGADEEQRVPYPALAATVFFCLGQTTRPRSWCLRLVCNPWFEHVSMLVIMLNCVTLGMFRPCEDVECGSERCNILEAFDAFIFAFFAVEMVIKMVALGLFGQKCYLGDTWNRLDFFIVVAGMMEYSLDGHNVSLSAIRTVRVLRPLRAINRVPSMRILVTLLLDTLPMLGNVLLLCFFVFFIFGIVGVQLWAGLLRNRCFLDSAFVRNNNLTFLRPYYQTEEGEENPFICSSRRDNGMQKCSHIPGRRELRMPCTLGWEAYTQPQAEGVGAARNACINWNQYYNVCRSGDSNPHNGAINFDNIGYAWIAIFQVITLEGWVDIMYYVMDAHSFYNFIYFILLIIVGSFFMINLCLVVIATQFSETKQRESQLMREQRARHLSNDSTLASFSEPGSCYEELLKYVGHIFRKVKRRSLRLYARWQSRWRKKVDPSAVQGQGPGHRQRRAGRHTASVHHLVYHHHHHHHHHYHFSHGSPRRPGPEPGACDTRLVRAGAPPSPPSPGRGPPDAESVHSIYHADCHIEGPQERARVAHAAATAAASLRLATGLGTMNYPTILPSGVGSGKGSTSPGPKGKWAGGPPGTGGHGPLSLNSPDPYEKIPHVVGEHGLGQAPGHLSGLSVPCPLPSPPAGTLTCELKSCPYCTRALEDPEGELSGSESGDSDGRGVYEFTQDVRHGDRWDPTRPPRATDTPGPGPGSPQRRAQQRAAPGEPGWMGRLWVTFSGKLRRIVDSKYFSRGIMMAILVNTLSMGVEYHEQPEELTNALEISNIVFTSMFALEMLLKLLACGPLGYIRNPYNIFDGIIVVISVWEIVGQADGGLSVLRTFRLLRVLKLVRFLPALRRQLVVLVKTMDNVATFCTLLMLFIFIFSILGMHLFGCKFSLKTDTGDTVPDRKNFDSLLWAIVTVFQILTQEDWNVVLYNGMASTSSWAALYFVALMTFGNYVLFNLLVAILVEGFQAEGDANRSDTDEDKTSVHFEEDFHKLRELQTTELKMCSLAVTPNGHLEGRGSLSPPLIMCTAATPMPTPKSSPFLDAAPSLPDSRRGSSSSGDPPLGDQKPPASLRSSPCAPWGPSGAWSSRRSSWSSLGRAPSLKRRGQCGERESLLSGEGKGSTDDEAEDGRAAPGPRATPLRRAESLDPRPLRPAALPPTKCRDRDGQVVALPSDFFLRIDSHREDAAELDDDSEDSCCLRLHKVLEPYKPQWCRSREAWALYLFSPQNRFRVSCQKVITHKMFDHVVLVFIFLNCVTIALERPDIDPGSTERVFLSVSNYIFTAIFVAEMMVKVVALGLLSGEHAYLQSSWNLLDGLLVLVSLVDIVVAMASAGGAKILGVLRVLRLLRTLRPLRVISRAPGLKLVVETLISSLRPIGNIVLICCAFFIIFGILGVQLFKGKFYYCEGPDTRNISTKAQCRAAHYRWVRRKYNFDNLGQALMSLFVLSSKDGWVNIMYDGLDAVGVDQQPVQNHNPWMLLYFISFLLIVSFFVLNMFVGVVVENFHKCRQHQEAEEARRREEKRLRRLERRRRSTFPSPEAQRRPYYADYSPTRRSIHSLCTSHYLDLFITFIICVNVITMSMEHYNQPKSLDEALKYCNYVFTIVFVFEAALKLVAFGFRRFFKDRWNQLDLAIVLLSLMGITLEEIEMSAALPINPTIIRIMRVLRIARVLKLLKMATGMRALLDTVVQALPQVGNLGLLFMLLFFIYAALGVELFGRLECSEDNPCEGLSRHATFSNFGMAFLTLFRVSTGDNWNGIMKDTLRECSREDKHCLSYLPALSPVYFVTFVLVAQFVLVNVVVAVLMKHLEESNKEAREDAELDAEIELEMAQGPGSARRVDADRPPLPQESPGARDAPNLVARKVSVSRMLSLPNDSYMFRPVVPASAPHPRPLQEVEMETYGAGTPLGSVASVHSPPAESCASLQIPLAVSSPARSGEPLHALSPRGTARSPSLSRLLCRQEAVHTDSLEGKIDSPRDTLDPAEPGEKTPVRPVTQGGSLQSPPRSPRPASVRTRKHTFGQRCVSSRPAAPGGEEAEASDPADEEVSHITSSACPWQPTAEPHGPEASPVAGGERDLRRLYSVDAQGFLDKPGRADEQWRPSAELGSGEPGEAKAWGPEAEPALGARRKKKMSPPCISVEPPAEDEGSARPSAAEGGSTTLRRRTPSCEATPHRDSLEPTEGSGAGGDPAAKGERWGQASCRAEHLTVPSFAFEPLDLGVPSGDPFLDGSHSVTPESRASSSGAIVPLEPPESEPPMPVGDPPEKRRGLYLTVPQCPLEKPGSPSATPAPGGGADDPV

[27] = target: Mu-type opioid receptor (Homo sapiens, UniProt P35372); experiment: SAR Analysis of Antagonists of the MOR Receptor using an Image-Based Assay - Set 3. [Related pubchem assays (depositor defined):AID1777, AID1785, AID1786, AID1966, AID2133, AID2136, AID2284, AID2285, AID2420]; assay type: functional
Mu-type opioid receptor, sequence (P35372 whole entry): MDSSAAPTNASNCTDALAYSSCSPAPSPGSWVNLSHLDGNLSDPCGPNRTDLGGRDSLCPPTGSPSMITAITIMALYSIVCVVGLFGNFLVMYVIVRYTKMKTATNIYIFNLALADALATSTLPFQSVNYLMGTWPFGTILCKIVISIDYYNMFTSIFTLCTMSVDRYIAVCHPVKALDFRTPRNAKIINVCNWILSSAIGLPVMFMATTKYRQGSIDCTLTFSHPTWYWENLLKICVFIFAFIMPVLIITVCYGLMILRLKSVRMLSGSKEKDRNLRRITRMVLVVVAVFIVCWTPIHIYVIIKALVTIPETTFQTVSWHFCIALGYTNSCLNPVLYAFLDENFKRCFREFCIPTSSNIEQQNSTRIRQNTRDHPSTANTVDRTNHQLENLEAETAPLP

[28] = target: Delta-type opioid receptor (Homo sapiens, UniProt P41143); experiment: SAR Analysis of Antagonists of the DOR Receptor using an Image-Based Assay - Set 3. [Related pubchem assays (depositor defined):AID1777, AID1785]; assay type: functional;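 also: U2OS cells expressing DOR1 and beta-arrestin GFP stimulated with 100 nM SNC80; imaging of GFP-tagged beta-arrestin moving into spots after receptor activation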
Delta-type opioid receptor, sequence (P41143 whole entry): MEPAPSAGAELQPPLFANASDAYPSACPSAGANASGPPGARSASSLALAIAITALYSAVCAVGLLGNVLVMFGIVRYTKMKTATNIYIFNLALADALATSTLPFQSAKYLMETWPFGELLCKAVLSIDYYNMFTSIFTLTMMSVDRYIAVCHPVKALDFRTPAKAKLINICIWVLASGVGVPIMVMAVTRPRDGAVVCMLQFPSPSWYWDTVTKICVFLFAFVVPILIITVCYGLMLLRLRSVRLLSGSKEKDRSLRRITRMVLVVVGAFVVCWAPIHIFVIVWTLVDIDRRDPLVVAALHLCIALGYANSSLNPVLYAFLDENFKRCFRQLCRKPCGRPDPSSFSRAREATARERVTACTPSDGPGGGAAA

[29] = target: T6, Kappa-type opioid receptor (Homo sapiens, UniProt P41145); experiment: SAR analysis of small molecule antagonists of the kappa opioid receptor via a luminescent beta-arrestin assay - Set 3. [Related pubchem assays (depositor defined):AID1777, AID1778, AID1785, AID1786, AID1966, AID2133, AID2136, AID2285, AID2495]; assay type: functional
T6 sequence (P41145 whole entry): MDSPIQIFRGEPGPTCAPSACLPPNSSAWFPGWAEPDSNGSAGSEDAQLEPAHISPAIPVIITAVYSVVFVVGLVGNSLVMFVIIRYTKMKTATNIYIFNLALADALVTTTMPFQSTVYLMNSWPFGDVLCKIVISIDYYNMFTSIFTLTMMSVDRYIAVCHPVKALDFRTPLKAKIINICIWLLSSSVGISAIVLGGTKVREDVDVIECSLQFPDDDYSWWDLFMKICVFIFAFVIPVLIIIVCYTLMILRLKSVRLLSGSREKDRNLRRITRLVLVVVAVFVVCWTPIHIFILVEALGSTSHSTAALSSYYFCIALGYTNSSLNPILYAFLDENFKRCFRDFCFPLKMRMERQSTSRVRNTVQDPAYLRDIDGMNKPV

[30] = target: T6, Kappa-type opioid receptor; experiment: SAR analysis of Antagonists of the Kappa Opioid Receptor (KOR) using an Image-Based Assay - Set 4. [Related pubchem assays (depositor defined):AID1777, AID1785]; assay type: functional
[31] = target: T6, Kappa-type opioid receptor; experiment: SAR analysis of small molecule antagonists of the kappa opioid receptor via a luminescent beta-arrestin assay - Set 6. [Related pubchem assays (depositor defined):AID1777, AID1778, AID1785, AID1786, AID1966, AID2133, AID2136, AID2285]; assay type: functional
[32] = target: T6, Kappa-type opioid receptor; experiment: SAR analysis of small molecule antagonists of the kappa opioid receptor via a luminescent beta-arrestin assay - Set 4. [Related pubchem assays (depositor defined):AID1777, AID1778, AID1785, AID1786, AID1966, AID2133, AID2136, AID2285]; assay type: functional
[33] = inhibition of K1F phage lysis, E. coli UTI89, bacterial capsule biogenesis inhibitors, alamar blue (AID 488966); assay type: functional

Compound: CCOC(=O)COc1ccccc1/C=C\[N+](=O)[O-]
- EC50 [1]: 3.48 µM (inconclusive)
- EC50 [2]: 4.03 µM (active)
- EC50 [3]: 26.7 µM (active)
- IC50 [4]: 0.962 µM (active)
- EC50 [5]: 3.99 µM (inconclusive)
- EC50 [6]: 4.76 µM (active)
- IC50 [7]: 3.42 µM (active)
- EC50 [8]: 0.335 µM (active)
- IC50 [9]: 1.92 µM (active)
- IC50 [10]: > 49.7 µM (inactive)

Compound: CCCCCCCCn1c2c(c(=N)c3ccccc31)CCC2
- EC50 [11]: < 0.1 µM (active)
- IC50 [12]: 7.78 µM (not active)
- EC50 [13]: 8.28 µM (active)
- IC50 [14]: 11.9 µM (active)
- EC50 [15]: 17.7 µM (active)
- IC50 [16]: 59.4 µM (inactive)
- EC50 [17]: 0.014 µM (active)

Compound: O=C(CSc1nc2ccccc2c(=O)n1-c1ccc(F)c(Cl)c1)Nc1ccc2c(c1)CCC2
- CC50 [18]: > 66.6 µM (active)
- CC50 [19]: > 100 µM (active)
- CC50 [20]: > 40 µM (active)
- IC50 [21]: 19.3 µM (active)

Compound: O=C(CSc1ccc2ccccc2n1)Nc1nsc(-c2ccc(Cl)cc2)n1
- IC50 [22]: 0.931 µM (active)
- IC50 [23]: 6.74 µM (active)
- IC50 [24]: 11.7 µM (active)

Compound: O=C(c1cccc(F)c1)n1nnc2ccccc21
- IC50 [25]: 10.5 µM (active)

Compound: O=C(COc1ccc(F)cc1Cl)Nc1nnc(-c2ccc(F)cc2)o1
- EC50 [26]: 1.9 µM (active)

Compound: O=C(Cn1c(=O)c2cccn2c2cc(Br)cnc21)NCCCN1CCN(c2ccc(Cl)cc2)CC1
- IC50 [27]: 5.32 µM (active)
- IC50 [28]: > 32 µM (inactive)
- IC50 [29]: > 20 µM (inactive)
- IC50 [30]: > 32 µM (inactive)

Compound: Cc1ccc(S(=O)(=O)NCc2ccc(C(=O)NCCCN3CCN(c4ccccc4)CC3)cc2)cc1
- IC50 [27]: 0.469 µM (active)
- IC50 [31]: > 20 µM (inactive)
- IC50 [32]: > 20 µM (inactive)
- IC50 [28]: > 32 µM (inactive)
- IC50 [30]: > 32 µM (inactive)

Compound: OC(CNc1ccnc2cc(Cl)ccc12)CNC1CCCCC1 (stereo unspecified)
- IC50 [33]: > 150 µM (active)
